This is an account of results in US11208642B2, “Microbial syringol utilization” (Alliance for Sustainable Energy, LLC, priority 2018, dated 2021).

One assay deals with T1, GcoA-F169A and GcoB (Amycolatopsis sp., UniProt P0DPQ7, F169A/H210Q).
T1 construct: GST (N, cleaved yes); made in house; host or cells: E. coli Rosetta 2 (DE3)
Description: Uncoupling reactions: endpoint formaldehyde referenced to NADH consumed. The note with it: for % Formaldehyde produced: referenced to NADH consumed; for Coupling efficiency: GcoA-F169A-catalyzed reaction. The assay is classed as biochemical. As to the method:
The ^a in Table 3 notes that 0.2 μM GcoA-F169A and GcoB were reacted with 100 μg catalase, 100 or 200 μM NADH, and 100 μM substrate in 25 mM HEPES, 50 mM NaCl, pH 7.5, 25° C., 210 μM O2. Endpoint analyses were done to quantify formaldehyde produced, which was then referenced to NADH consumed. The ^b in Table 3 notes that the same reaction done above was repeated to quantify H2O2 produced using the Amplex Red/HRP assay. The amount of hydrogen peroxide was then referenced to NADH consumed.
Formaldehyde determination. A colorimetric assay using tryptophan can be used to quantify the amount of formaldehyde produced in F169 GcoA/B reactions with guaiacol, syringol, or 3MC. 0.2 μM each of F169 GcoA mutants and GcoB were dissolved in air-saturated buffer (25 mM HEPES, 50 mM NaCl) in a cuvette at pH 7.5, 25° C. 100 μg/mL catalase was added to each reaction to capture any H2O2 formed during the uncoupled reaction. Two hundred μM NADH was added and the background rate recorded. One hundred (guaiacol, syringol, or 3MC) or 200 (syringol) μM of substrate was then added and the reaction monitored until there was no more change, due to either substrate, NADH or O2 depletion, whichever occurred first. 200 μL of the reaction was then quenched by adding 200 μL of a 0.1% tryptophan solution in 50% ethanol and 200 μL of 90% sulfuric acid. Upon thorough mixing, 40 μL of 1% FeCl3 was added. The solution was then incubated in a heating block for 90 min at 70° C. After cooling, the absorbance was read at 575 nm and the concentration of formaldehyde was calculated by using ε575 nm=4.2 mM^−1 cm^−1, obtained with formaldehyde as a standard. A negative control included everything but the substrate and was used as a baseline.

Assay [1] addresses T2, GcoA-F169A (Amycolatopsis sp., UniProt P0DPQ7, F169A/H210Q).
T2 construct: GST (N, cleaved yes); made in house; host or cells: E. coli Rosetta 2 (DE3)
Description: Substrate dissociation constant (KD) by UV/vis spin-state titration. Format: binding. As to the method:
Guaiacol (FIG. 1A) caused the Soret peak (λ=417 nm) of GcoA-F169A to shift to 387 nm, indicating the conversion of a low-spin to a high-spin species. Syringol (FIG. 1B) caused the Soret peak (λ=417 nm) of GcoA-F169A to shift to 387 nm, indicating the conversion of a low-spin to a high-spin species. 3MC (FIG. 1C) caused the Soret peak (λ=417 nm) of GcoA-F169A to shift to 387 nm, indicating the conversion of a low-spin to a high-spin species. 0-60 μM substrate was titrated into a solution containing 3 μM GcoA-F169A and air-saturated buffer (25 mM HEPES, 50 mM NaCl, pH 7.5, 25° C.) and the spectra monitored until there was no more change, indicating saturation. The solution reached equilibrium prior to each substrate addition. […] Error bars represent ±1 standard deviation of two or more runs.
Zero to 60 μM of guaiacol, syringol, or 3MC in 0.5 or 1 μM aliquots, were titrated into a cuvette containing 3 μM F169A GcoA in 25 mM HEPES, 50 mM NaCl, pH 7.5. The spectrum after each substrate addition was recorded, beginning with no substrate bound. The solution reached equilibrium before the next addition. A difference spectrum was made to illustrate the shift from a low-spin aquo-heme complex to the high-spin substrate-bound complex (spectral shift from 417 nm to 388 nm). […] The absorbance at 388 nm (AbS388-417 nm) was plotted as a function of [substrate], yielding a quadratic curve that was fit to equation (5) to determine the KD.
Where L0, Et, KD, and ΔAbsmax are the ligand concentrations, total protein (subunit) concentration, the equilibrium dissociation constant, and the maximum AbS388-417nm, respectively. Reported values are the average of 2 or more measurements.

The target in assay [2] is T2, GcoA-F169A. Description: Rate of NADH disappearance (UV/vis) with each substrate. The assay is classed as biochemical. Particulars: GcoA-F169A with the named substrate. As to the method:
To address whether guaiacol and/or syringol would serve as substrates of GcoA-F169A, the disappearance of NADH (UV/vis) and aromatic substrate (HPLC) was monitored over time (FIG. 1). The rates of organic substrate and NADH consumption were robust and the same within error, regardless of whether guaiacol or syringol was used (5.3±0.3 μM guaiacol s^−1 μmol GcoA-F169A^−1, 5.8±0.8 μM NADH s^−1 μmol GcoA-F169A-1; 4.1±0.3 μM syringol s^−1 μmol GcoA-F169A^−1, 5.1±0.8 μM NADH s^−1 μmol GcoA-F169A^−1).
Steady state kinetics of F169A. 0.2 μM each of F169A GcoA and GcoB were dissolved in air-saturated buffer (25 mM HEPES, 50 mM NaCl) in a cuvette at pH 7.5, 25° C. 100 μg/mL catalase was added to each reaction to capture any H2O2 formed during the uncoupled reaction. A saturating amount of NADH (≥5 KM, 300 μM) was added and a background rate of NADH oxidation in air (about 210 μM O2) recorded via continuous scanning of the UV/vis spectrum (Varian Cary 50). 20-300 μM guaiacol or syringol 2-20 mM stock dissolved in DMSO was added and the reaction was monitored via measurement of UV/vis spectra for several minutes. The initial velocity was determined by disappearance of the characteristic NADH absorbance at 340 nm ([…]=6.22 mM^−1 cm^−1). A plot of vi versus the concentration of guaiacol was fit to equation 4 to obtain kcat, KM, and kcat/KM. For specific activity determination, the above method was used but with saturating (300 μM) guaiacol, syringol, or 3-methoxycatechol (3MC), and in the presence of all F169 GcoA mutants (A, H, S, V, I, L). The linear portion of the concentration of NADH versus time was fit and referenced to the amount of GcoA used (0.2 μM). Reported values are the average of at least 3 measurements and reported errors are standard deviations. vi=Vmax[S]/(KM+[S]) Equation (4): […]

T1 sequence (P0DPQ7 whole entry F169A/H210Q): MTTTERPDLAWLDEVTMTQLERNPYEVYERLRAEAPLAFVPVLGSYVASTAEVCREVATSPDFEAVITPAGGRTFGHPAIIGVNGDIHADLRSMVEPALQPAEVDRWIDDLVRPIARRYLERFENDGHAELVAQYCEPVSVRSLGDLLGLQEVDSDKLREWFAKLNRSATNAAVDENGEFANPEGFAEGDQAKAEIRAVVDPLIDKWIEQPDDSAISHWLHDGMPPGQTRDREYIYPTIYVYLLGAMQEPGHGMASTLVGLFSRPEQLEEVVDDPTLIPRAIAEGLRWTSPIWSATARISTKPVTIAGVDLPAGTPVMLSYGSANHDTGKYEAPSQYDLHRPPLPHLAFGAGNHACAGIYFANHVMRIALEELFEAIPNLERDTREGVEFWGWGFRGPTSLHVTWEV
T2 sequence (P0DPQ7 whole entry F169A/H210Q): as above

The term Kd denotes the equilibrium constant for the complex coming apart. Low values mean tighter binding, high ones weaker binding. Consider `COc1cccc(O)c1O` [3MC, 3-methoxycatechol], for which the “% Formaldehyde produced” value at GcoA-F169A and GcoB (100 μM substrate + 100 μM NADH) came to 52 ± 7%. The “Coupling efficiency” value on GcoA-F169A and GcoB was determined as 64±10%. On GcoA-F169A [1], the affinity, expressed as Kd, was 9.5 ± 0.02 µM. Besides, the “Rate of NADH consumption (UV/vis)” value on GcoA-F169A [2] is given as 5.6±0.8 μM NADH s^−1 μmol GcoA-F169A^−1.
For `COc1ccccc1O` [guaiacol, 2-methoxyphenol] the same measures were 100 ± 10%, 91±8%, 7.1 ± 0.1 µM and 5.8±0.8 μM NADH s^−1 μmol GcoA-F169A^−1.
As for `COc1cccc(OC)c1O` [syringol, 2,6-dimethoxyphenol], the “% Formaldehyde produced” value at GcoA-F169A and GcoB (100 μM substrate + 100 μM NADH) is 125 ± 6%; on GcoA-F169A and GcoB (100 μM substrate + 200 μM NADH), 91 ± 8%. For the same compound, the equilibrium dissociation constant (Kd) on GcoA-F169A [1] came to 1.7 ± 0.07 µM. Besides, on GcoA-F169A [2], the “Rate of NADH consumption (UV/vis)” value is given as 5.1±0.8 μM NADH s^−1 μmol GcoA-F169A^−1.
